Experimental data from paper PMC4006873 (Biochemistry, 2013).
Peptide text beside a SMILES is read from it. * marks the point of attachment. X1 = C[C@@H]1C[C@H]2[C@@H]3CCC4=CC(=O)C=C[C@]4(C)[C@@]3(F)[C@@H](O)C[C@]2(C)[C@@]1(O)C(=O)CSCCC(=O)*

How the values were obtained:
GR★-GFP [1] = target: T1, GR★-GFP (Homo sapiens, UniProt P04150, C638G); assay: GIGT nuclear translocation, transiently transfected cells expressing GR★-GFP; assay type: cell-based; details: HeLa cells expressing GR★-GFP, 500 nM, 30 min
T1 sequence (P04150 1-777 C638G): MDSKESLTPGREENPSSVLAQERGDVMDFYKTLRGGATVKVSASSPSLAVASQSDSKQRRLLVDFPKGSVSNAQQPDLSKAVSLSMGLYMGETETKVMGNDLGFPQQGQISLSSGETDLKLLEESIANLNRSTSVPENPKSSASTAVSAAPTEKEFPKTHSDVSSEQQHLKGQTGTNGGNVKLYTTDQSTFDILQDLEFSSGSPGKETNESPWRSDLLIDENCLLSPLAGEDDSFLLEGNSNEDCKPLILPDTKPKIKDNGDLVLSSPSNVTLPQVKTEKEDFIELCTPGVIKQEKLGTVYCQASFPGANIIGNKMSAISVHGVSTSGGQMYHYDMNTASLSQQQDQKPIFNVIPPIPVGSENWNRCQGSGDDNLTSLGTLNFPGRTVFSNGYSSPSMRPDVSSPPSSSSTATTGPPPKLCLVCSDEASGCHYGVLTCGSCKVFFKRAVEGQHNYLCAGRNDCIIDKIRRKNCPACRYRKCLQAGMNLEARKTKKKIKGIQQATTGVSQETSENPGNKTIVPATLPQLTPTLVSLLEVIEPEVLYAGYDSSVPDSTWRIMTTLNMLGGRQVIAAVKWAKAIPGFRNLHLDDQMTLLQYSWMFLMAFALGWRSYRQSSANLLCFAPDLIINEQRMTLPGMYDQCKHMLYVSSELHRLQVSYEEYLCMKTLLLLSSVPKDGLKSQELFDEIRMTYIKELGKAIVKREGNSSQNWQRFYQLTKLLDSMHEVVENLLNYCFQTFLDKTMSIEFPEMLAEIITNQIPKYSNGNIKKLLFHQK

GR★-GFP [2] = target: T1, GR★-GFP; assay: High-content imaging of GIGT in stably transfected Saos-2; assay type: cell-based; details: Saos-2(GIGT) cells, 30 min; for Z′-factor of GIGT assay: 1 μM vs untreated
Gal4-GR★-VP16 = target: T2, Gal4-GR★-VP16 (Homo sapiens, UniProt P04150, C638G); assay: GIGI in cell lysates, stably transfected U2OS; details: U2OS(GIGI) cells; for Z′-factor of GIGI assay: 1 μM vs untreated, 24 h, n = 150
T2 sequence (P04150 524-758 C638G): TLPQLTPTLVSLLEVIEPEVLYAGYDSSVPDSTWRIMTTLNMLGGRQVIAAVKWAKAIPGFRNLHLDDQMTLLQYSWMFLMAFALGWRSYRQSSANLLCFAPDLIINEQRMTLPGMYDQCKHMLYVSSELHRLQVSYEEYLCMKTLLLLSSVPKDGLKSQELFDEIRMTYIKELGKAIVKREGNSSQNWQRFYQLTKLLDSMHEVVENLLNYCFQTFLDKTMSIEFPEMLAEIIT

rat C656G GR = details: read-out: equilibrium dissociation constant (Kd), in vitro; cited from earlier work

In the case of CC[C@H](C)[C@H](NC(=O)[C@H](CC(C)C)NC(=O)[C@H](CC(=O)O)NC(=O)[C@H](CCCNC(=N)N)NC(=O)[C@@H](NC(=O)[C@@H]1CCCN1C(=O)[C@H](C)NC(=O)[C@H](CC(=O)O)NC(=O)[C@H](CC(=O)O)NC(=O)CNC(=O)[C@@H]1CCCN1C(=O)[C@H](Cc1ccc(O)cc1)NC(=O)[C@@H](NC(=O)[C@@H]1CCCN1C(=O)[C@H](CCC(N)=O)NC(=O)[C@H](CO)NC(=O)[C@@H]1CCCN1C(=O)CN)[C@@H](C)O)C(C)C)C(=O)N[C@@H](CCCNC(=N)N)C(=O)N[C@@H](Cc1ccccc1)C(=O)N[C@@H](Cc1ccc(O)cc1)C(=O)N[C@@H](CCCNC(=N)N)C(=O)N[C@@H](CC(=O)O)C(=O)N[C@@H](CC(C)C)C(=O)N[C@@H](CCCNC(=N)N)C(=O)N[C@@H](CCCNC(=N)N)C(=O)N[C@@H](Cc1ccc(O)cc1)C(=O)N[C@@H](CC(C)C)C(=O)N[C@@H](CC(N)=O)C(=O)N[C@H](C(=O)N[C@H](C(=O)N[C@H](C(=O)N[C@@H](CCCNC(=N)N)C(=O)N[C@@H](Cc1c[nH]cn1)C(=O)N[C@@H](CCCNC(=N)N)C(=O)N[C@@H](Cc1ccc(O)cc1)C(=O)N[C@@H](CCCCNC(=O)CCSCC(=O)[C@@]1(O)[C@H](C)C[C@H]2[C@@H]3CCC4=CC(=O)C=C[C@]4(C)[C@@]3(F)[C@@H](O)C[C@@]21C)C(N)=O)[C@@H](C)O)C(C)C)C(C)C [5.3^Dex] (H-GPSQPTYPGDDAPVRDLIRFYRDLRRYLNVVTRHRYK(X1)-NH2; N-terminus and C-terminus assumed), the “translocation ratio (TR)” value (GR★-GFP [1]) is reported as 2.79 ± 0.39, the “Z′-factor of GIGT assay” value (GR★-GFP [2]) is reported as 0.54 and the “translocation ratio (TR)” value (GR★-GFP [2]; 1 μM) is reported as 4.01 ± 0.30. For the same compound, the “eGFP expression after treatment and cell lysis” value (Gal4-GR★-VP16; 1 μM) was “significant eGFP expression” and the “Z′-factor of GIGI assay” value (Gal4-GR★-VP16) was 0.56.

For C[C@@H]1C[C@H]2[C@@H]3CCC4=CC(=O)C=C[C@]4(C)[C@@]3(F)[C@@H](O)C[C@]2(C)[C@@]1(O)C(=O)CO [Dex, dexamethasone], the Kd (rat C656G GR) is listed as 0.55 nM.

With CC(C)C[C@H](NC(=O)[C@H](Cc1c[nH]cn1)NC(=O)[C@H](CCCNC(=N)N)NC(=O)[C@H](CO)NC(=O)[C@H](CC(C)C)NC(=O)[C@@H](NC(=O)[C@H](Cc1ccccc1)NC(=O)[C@H](C)NC(=O)[C@H](CCCCN)NC(=O)CNC(=O)[C@H](CS)NC(=O)[C@@H](NC(=O)[C@H](CC(N)=O)NC(=O)[C@H](CS)NC(=O)[C@H](CO)NC(=O)[C@H](Cc1ccc(O)cc1)NC(=O)[C@@H](N)Cc1c[nH]c2ccccc12)C(C)C)C(C)C)C(=O)N[C@@H](CC(N)=O)C(=O)N[C@@H](CCCNC(=N)N)C(=O)N[C@@H](Cc1c[nH]cn1)C(=O)N[C@@H](CC(C)C)C(=O)N[C@@H](CCCNC(=N)N)C(=O)N[C@H](C(=O)N[C@@H](Cc1c[nH]cn1)C(=O)N[C@@H](CCCNC(=N)N)C(=O)N[C@@H](CCCNC(=N)N)C(=O)N[C@@H](C)C(=O)N[C@H](C(=O)N[C@@H](CCCCNC(=O)CCSCC(=O)[C@@]1(O)[C@H](C)C[C@H]2[C@@H]3CCC4=CC(=O)C=C[C@]4(C)[C@@]3(F)[C@@H](O)C[C@@]21C)C(N)=O)[C@@H](C)O)C(C)C [ZF5.3^Dex] (H-WYSCNVCGKAFVLSRHLNRHLRVHRRATK(X1)-NH2; N-terminus and C-terminus assumed) the “Z′-factor of GIGT assay” value (GR★-GFP [2]) was 0.56 and the “Z′-factor of GIGI assay” value (Gal4-GR★-VP16) was 0.42.
